According to article PMC7004151, “Synthesis and Structure‐Activity Relationships of N‐(4‐Benzamidino)‐Oxazolidinones: Potent and Selective Inhibitors of Kallikrein‐Related Peptidase 6” (Chemmedchem, 2019):
Read-outs that look alike come from different tables or passages of the source.

What was measured:
Format in all cases: biochemical
[1] = target: KLK6 (Homo sapiens, UniProt Q92876); assay: KLK6 enzymatic inhibition assay (fluorogenic Boc-Phe-Ser-Arg-AMC substrate); parameters: made in house; conditions: for IC50: read-out: KLK6 pIC50 (converted); for LipE: LipE=pIC50 – logP (KLK6 pIC50, ALogP)
Protocol: Using our previously published KLK6 assay format,21 we performed a HTS with the European Lead Factory (ELF),22 and tested ∼350,000 substances at 10 μM for their ability to reduce KLK6‐catalyzed hydrolysis of the fluorogenic Boc‐Phe‐Ser‐Arg‐AMC peptide.
High Throughput Screen: The European Lead Factory library of ∼350,000 compounds was used for high throughput screening at the Pivot Park Screening Center facilities in Oss, The Netherlands. […] For SPR, Biacore T200 was used and KLK6 was immobilized onto a CM5 chip. […] An 8 point 1 in 3 dilution series of 1 (50 μM to 0.02 μM) was also applied at the beginning and end of each screening day.
Enzyme inhibition assays: All chemicals were purchased from Sigma Aldrich (Gillingham, UK) unless otherwise stated.

[2] = target: T1, KLK7 (Homo sapiens, UniProt P49862); assay: KLK7 enzyme inhibition assay; conditions: read-out: KLK7 pIC50 (converted)
T1 construct: purchased 2B scientific
Protocol: (§1) Enzyme inhibition assays: All chemicals were purchased from Sigma Aldrich (Gillingham, UK) unless otherwise stated. All experiments were conducted in 384 well black, low volume microplates (Greiner 784076) with a final volume of 20 μL and compounds were dispensed into assay plates using an ECHO 550 acoustic dispenser (Labcyte). KLK6 (5 nM) (prepared as in ref. 21) was incubated with test compounds for 30 min at room temperature in assay buffer (50 mM Tris, pH 7.5, 150 mM NaCl, 1 mM EDTA, 0.05 % tween 20, 0.1 % bovine serum albumin (BSA), 1 mM dithiothreitol (DTT)) before the reaction was started by addition of 20 μM Boc‐Phe‐Ser‐Arg‐AMC substrate (Bachem). Fluorescence intensity was read at ex/em 355/460 following incubation for 2 h in the dark at room temperature.
(§2) Assays using KLK7 and KLK8 (2B scientific) were conducted in the same manner as for KLK6 with the following exceptions. Both KLK7 and KLK8 required activation before assaying. KLK7 was combined with an equal volume of 20 μg/ml thermolysin (R&D systems) in activation buffer (50 mM Tris, pH 7.5, 10 mM CaCl2, 150 mM NaCl and 0.05 % Brij‐L23) and incubated at 37 °C for 2 h, the reaction was stopped with the addition of 100 mM EDTA in stop solution (50 mM Tris, 150 mM NaCl, pH 8.5). KLK8 was combined with an equal volume of 0.4 mU/mL lysyl endopeptidase (Alpha laboratories) in activation buffer (50 mM Tris, pH 8.0) and incubated at 37 °C for 30 min. Activated KLK7 (40 nM) and KLK8 (25 nM) were assayed with 40 μM Mca‐RPKPVE‐Nval‐WRK(Dnp)‐NH2 fluorogenic MMP substrate (R&D systems) and 25 μM Boc‐V‐P‐R‐AMC substrate (R&D systems), respectively.

[3] = target: T2, Human thrombin (Homo sapiens, UniProt P00734); assay: Thrombin enzyme inhibition assay; conditions: read-out: Thrombin pIC50 (converted)
T2 construct: Human thrombin was purchased from Biopur; purchased Biopur
Protocol: (§3) Human thrombin was purchased from Biopur. Human trypsin was purchased from Polymun Scientific. Human Factor Xa was purchased from Enzo Life Sciences. Thrombin (20 nM), trypsin (0.000015 %) or Factor Xa (10 nM) were assayed in a similar manner to the KLKs but were incubated with compound for 20 min at room temperature in assay buffer (50 mM Tris HCl, pH 7.6, 100 mM NaCl, 1 mg/ml CHAPS, 0.05 % bovine serum albumin (BSA), 1 mM dithiothreitol (DTT)) before the addition of 5 μM, 2.5 μM or 1.5 μM Rhodamine 110 substrate (Cambridge bioscience ltd) respectively. Fluorescence intensity was then read at ex/em 485/535 following incubation for 1 h at room temperature (thrombin and factor Xa) or 20 min (trypsin).

[4] = target: T3, Human Factor Xa (Homo sapiens, UniProt P00742); assay: Factor Xa enzyme inhibition assay; conditions: read-out: Factor Xa pIC50 (converted)
T3 construct: Human Factor Xa was purchased from Enzo Life Sciences; purchased Enzo Life Sciences
Protocol: as §3

[5] = target: T4, Human trypsin (Homo sapiens, UniProt P07477); assay: Trypsin enzyme inhibition assay; conditions: for IC50: read-out: Trypsin pIC50 (converted)
T4 construct: purchased Polymun Scientific
Protocol: Human thrombin was purchased from Biopur. Human trypsin was purchased from Polymun Scientific. Human Factor Xa was purchased from Enzo Life Sciences. […] Fluorescence intensity was then read at ex/em 485/535 following incubation for 1 h at room temperature (thrombin and factor Xa) or 20 min (trypsin).

[6] = target: T5, KLK8 (Homo sapiens, UniProt O60259); assay: KLK8 enzyme inhibition assay; conditions: read-out: KLK8 pIC50 (converted)
T5 construct: purchased 2B scientific
T5 sequence (O60259 33-260): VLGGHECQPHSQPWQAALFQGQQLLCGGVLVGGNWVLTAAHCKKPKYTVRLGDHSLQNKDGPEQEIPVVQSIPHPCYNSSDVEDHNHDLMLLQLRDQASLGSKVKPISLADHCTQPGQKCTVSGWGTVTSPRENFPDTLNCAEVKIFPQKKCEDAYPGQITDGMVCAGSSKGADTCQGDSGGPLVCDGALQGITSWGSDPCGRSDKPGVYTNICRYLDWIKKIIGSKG
Protocol: as §1, §2

[7] = target: KLK4 (Homo sapiens, UniProt Q9Y5K2); assay: KLK4 inhibition (selectivity); conditions: read-out: KLK4 pIC50 (converted)
Description: Table 3 Activity of synthesized inhibitors against KLK6 and related proteases. | column: KLK4^a

[8] = resynthesized stereoisomers, enzymatic inhibition assay (Table 2)
[9] = synthesized inhibitors (Table 3), 8.6 = assay limit

T1 sequence (P49862 30-253, species assumed): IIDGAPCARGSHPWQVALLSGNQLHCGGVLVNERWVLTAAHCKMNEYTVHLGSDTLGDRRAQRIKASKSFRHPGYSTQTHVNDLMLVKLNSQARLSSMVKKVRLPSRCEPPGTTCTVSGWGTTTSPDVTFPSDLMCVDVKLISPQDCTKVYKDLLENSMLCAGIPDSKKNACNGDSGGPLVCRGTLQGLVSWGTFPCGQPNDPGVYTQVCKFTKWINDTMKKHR
T3 sequence (P00742 235-488 limits assumed): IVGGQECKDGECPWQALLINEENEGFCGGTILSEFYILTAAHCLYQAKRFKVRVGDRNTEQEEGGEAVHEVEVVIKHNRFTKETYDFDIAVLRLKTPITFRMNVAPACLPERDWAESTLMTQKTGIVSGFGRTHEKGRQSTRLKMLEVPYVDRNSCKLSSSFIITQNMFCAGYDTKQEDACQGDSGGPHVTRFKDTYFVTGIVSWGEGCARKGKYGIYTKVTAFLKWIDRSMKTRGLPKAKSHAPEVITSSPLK
T3 sequence (P00742 41-179 partner limits assumed): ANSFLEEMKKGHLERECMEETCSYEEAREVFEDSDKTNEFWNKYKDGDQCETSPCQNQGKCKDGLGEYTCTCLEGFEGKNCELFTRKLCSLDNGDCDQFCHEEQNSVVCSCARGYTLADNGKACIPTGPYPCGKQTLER
KLK4, sequence (Q9Y5K2 31-254, species assumed): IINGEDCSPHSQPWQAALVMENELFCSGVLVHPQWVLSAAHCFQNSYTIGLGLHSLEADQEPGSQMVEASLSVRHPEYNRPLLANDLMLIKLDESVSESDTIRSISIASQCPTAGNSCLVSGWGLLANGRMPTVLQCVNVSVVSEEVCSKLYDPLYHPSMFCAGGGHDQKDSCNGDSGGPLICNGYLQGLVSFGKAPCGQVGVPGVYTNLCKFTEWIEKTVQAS

SMILES | IC50 [1, 8] | IC50 [2] | IC50 [3] | IC50 [4] | IC50 [5] | IC50 [6] | IC50 [1, 9] | IC50 [7] | LipE [1] | gain in potency for KLK6 ([1]; relative to 5) | KLK6 potency loss ([1]; relative to 29) | selectivity against trypsin ([5]; KLK6 over trypsin) | KLK6 potency loss ([1]; relative to 32) | KLK6 potency loss ([1]; relative to 5)
COc1cccc([C@H](C)NC(=O)[C@@H]2CN(c3ccc(C(=N)N)cc3)C(=O)O2)c1 [Compound 10] | > 20 µM |  |  |  |  |  |  |  |  |  |  |  |  | 
COc1cccc(CNC(=O)[C@H]2CN(c3ccc(C(=N)N)cc3)C(=O)O2)c1 [Compound 23, (5R)‐3‐(4‐carbamimidoylphenyl)‐N‐(3‐methoxybenzyl)‐2‐oxooxazolidine‐5‐carboxamide] |  | > 20 µM | > 20 µM | > 20 µM | > 20 µM | > 20 µM | 3.98 µM |  |  |  |  |  |  | 
CC[C@H](NC(=O)[C@H]1CN(c2ccc(C(=N)N)cc2)C(=O)O1)c1cccc(OC)c1 [Compound 24, (5R)‐3‐(4‐carbamimidoylphenyl)‐N‐[(1S)‐1‐(3‐methoxyphenyl)propyl]‐2‐oxo‐oxazolidine‐5‐carboxamide] |  | > 20 µM | > 20 µM | > 20 µM | 1.58 µM | 5.01 µM | 0.0316 µM | 2.51 µM | 5.16 | ~10 fold |  |  |  | 
COc1cccc([C@@H](NC(=O)[C@H]2CN(c3ccc(C(=N)N)cc3)C(=O)O2)C2CC2)c1 [Compound 25, (5R)‐3‐(4‐carbamimidoylphenyl)‐N‐((1S)‐cyclopropyl(3‐methoxyphenyl)methyl)‐2‐oxooxazolidine‐5‐carboxamide] |  | > 20 µM | > 20 µM | > 20 µM | 0.251 µM | 0.794 µM | 0.0316 µM |  |  |  |  |  |  | 
COc1cccc(C(C)(C)NC(=O)[C@H]2CN(c3ccc(C(=N)N)cc3)C(=O)O2)c1 [Compound 26, (5R)‐3‐(4‐carbamimidoylphenyl)‐N‐(2‐(3‐methoxyphenyl)propan‐2‐yl)‐2‐oxooxazolidine‐5‐carboxamide] |  |  |  |  | 10 µM | > 20 µM | 0.158 µM |  |  |  |  |  |  | 
CC(C)(NC(=O)[C@H]1CN(c2ccc(C(=N)N)cc2)C(=O)O1)c1ccccc1 [Compound 27, (5R)‐3‐(4‐carbamimidoylphenyl)‐2‐oxo‐N‐(2‐phenylpropan‐2‐yl)oxazolidine‐5‐carboxamide] |  | > 20 µM | > 20 µM | > 20 µM | > 20 µM | > 20 µM | 0.794 µM | 39.8 µM |  |  |  |  |  | 
CC(C)(NC(=O)[C@H]1CN(c2ccc(C(=N)N)cc2)C(=O)O1)C(=O)Nc1ccccc1 [Compound 28, (5R)‐3‐(4‐carbamimidoylphenyl)‐N‐(2‐methyl‐1‐oxo‐1‐(phenylamino)propan‐2‐yl)‐2‐oxooxazolidine‐5‐carboxamide] |  |  |  |  | 6.31 µM |  | 0.0316 µM | 1.58 µM | 6.20 |  |  |  |  | 
COc1cccc(C(C)NC(=O)C2CC(=O)N(c3ccc(C(=N)N)cc3)C2)c1 [Compound 43, (5R)‐1‐(4‐carbamimidoylphenyl)‐N‐[(1S)‐1‐(3‐methoxyphenyl)ethyl]‐5‐oxopyrrolidine‐3‐carboxamide] |  | > 20 µM | > 20 µM | > 20 µM | 5.01 µM | > 20 µM | 0.316 µM | 7.94 µM |  |  |  |  |  | 
COc1cccc([C@H](C)NC[C@H]2CN(c3ccc(C(=N)N)cc3)C(=O)O2)c1 [Compound 49, 4‐((S)‐5‐((((S)‐1‐(3‐methoxyphenyl)ethyl)amino)methyl)‐2‐oxooxazolidin‐3‐yl)benzimidamide] |  | > 20 µM | > 20 µM | > 20 µM | > 20 µM | > 20 µM | 10 µM |  |  |  |  |  |  | 40 fold

The remaining lines, values ahead:

IC50 [1, 8] | IC50 [2] | IC50 [3] | IC50 [4] | IC50 [5] | IC50 [6] | IC50 [1, 9] | IC50 [7] | LipE [1] | gain in potency for KLK6 ([1]; relative to 5) | KLK6 potency loss ([1]; relative to 29) | selectivity against trypsin ([5]; KLK6 over trypsin) | KLK6 potency loss ([1]; relative to 32) | KLK6 potency loss ([1]; relative to 5) | SMILES
> 20 µM | > 20 µM | > 20 µM | > 20 µM | > 20 µM | > 20 µM |  |  |  |  |  |  |  |  | COc1cccc([C@@H](C)NC(=O)[C@H]2CN(c3ccc(C(=N)N)cc3)C(=O)O2)c1 [Compound 11, (5R)‐3‐(4‐carbamimidoylphenyl)‐N‐[(R)‐1‐(3‐methoxyphenyl)ethyl]‐2‐oxooxazolidine‐5‐carboxamide]
 | > 20 µM | > 20 µM | > 20 µM | 0.794 µM | 1 µM | 0.0126 µM | 0.631 µM |  |  |  |  |  |  | C[C@H](NC(=O)[C@H]1CN(c2ccc(C(=N)N)cc2)C(=O)O1)c1cccc2ccccc12 [Compound 29, (5R)‐3‐(4‐carbamimidoylphenyl)‐N‐((S)‐1‐(naphthalen‐1‐yl)ethyl)‐2‐oxooxazolidine‐5‐carboxamide]
 | > 20 µM | > 20 µM | > 20 µM | 3.98 µM | 10 µM | 0.1 µM | 3.16 µM |  |  | 10 fold |  |  |  | C[C@H](NC(=O)[C@H]1CN(c2ccc(C(=N)N)cc2)C(=O)O1)c1ccc2ccccc2c1 [Compound 30, (5R)‐3‐(4‐carbamimidoylphenyl)‐N‐[(1S)‐1‐(2‐naphthyl)ethyl]‐2‐oxo‐oxazolidine‐5‐carboxamide]
 |  |  |  | 5.01 µM | > 20 µM | 0.0794 µM |  |  |  | ~6 fold |  |  |  | CC(C)(NC(=O)[C@H]1CN(c2ccc(C(=N)N)cc2)C(=O)O1)c1cccc2ccccc12 [Compound 31, (5R)‐3‐(4‐carbamimidoylphenyl)‐N‐(2‐(naphthalen‐1‐yl)propan‐2‐yl)‐2‐oxooxazolidine‐5‐carboxamide]
 |  |  |  | 6.31 µM | > 20 µM | 0.126 µM |  |  |  |  |  |  |  | CC[C@H](NC(=O)[C@H]1CN(c2ccc(C(=N)N)cc2)C(=O)O1)c1ccnc2ccccc12 [Compound 33, (5R)‐3‐(4‐carbamimidoylphenyl)‐2‐oxo‐N‐((1S)‐1‐(quinolin‐4‐yl)propyl)oxazolidine‐5‐carboxamide]
 |  |  |  | 0.631 µM | 0.501 µM | 0.00501 µM |  | 5.76 |  |  | > 100 fold |  |  | CC[C@H](NC(=O)[C@H]1CN(c2ccc(C(=N)N)nc2)C(=O)O1)c1cccc2ccccc12 [Compound 34, (5R)‐3‐(6‐carbamimidoylpyridin‐3‐yl)‐N‐((1S)‐1‐(naphthalen‐1‐yl)propyl)‐2‐oxooxazolidine‐5‐carboxamide]
 |  |  |  | 5.01 µM | 10 µM | 0.316 µM | 5.01 µM |  |  |  |  | ~100 fold |  | CC[C@H](NC(=O)[C@H]1CN(c2ccc(CN)cc2)C(=O)O1)c1cccc2ccccc12 [Compound 35, (5R)‐3‐(4‐(aminomethyl)phenyl)‐N‐[(1S)‐1‐(naphthalen‐1‐yl)propyl]‐2‐oxooxazolidine‐5‐carboxamide]
